Experimental data reported in patent publication US11617726B2, “Method for preventing, treating, or ameliorating a microbial infection” (priority 2018, dated 2023).

Key:
Assay type in all cases: cell-based
[1] = system: Acinetobacter baumannii isolates; test: Antimicrobial susceptibility test, disc diffusion method (CLSI M100-S24); design: key to Inhibition zone: “NZ” indicated that no zone of inhibition was observed; conditions: for Inhibition zone: disc diffusion
How it was run: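 Disc diffusion per CLSI M100-S24 on 33 MDR clinical A. baumannii isolates from burn wards; 0.5 McFarland inoculum swabbed onto Mueller-Hinton agar, incubated aerobically 35-37° C, 18-20 h. Zone diameters measured to nearest mm and categorized S/I/R by CLSI breakpoints.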

[2] = system: Pseudomonas aeruginosa ATCC 27853; test: MIC determination by broth dilution method (CLSI M07-A9); conditions: P. aeruginosa ATCC 27853
Experimental: (§1) Minimum Inhibitory Concentration (MIC) is the lowest concentration of an antimicrobial agent that prevents visible growth of a microorganism in an agar or broth dilution susceptibility test. MIC of thymoquinone was determined by the broth dilution method against 33 MDR Acinetobacter baumannii strains and standard sensitive culture collection strain of Acinetobacter baumannii and Pseudomonas aeruginosa. The MIC of gentamicin was deter lined by broth dilution method against six MDR Acinetobacter baumannii strains and standard sensitive culture collection strains of Acinetobacter baumannii and Pseudomonas aeruginosa. MIC testing was performed according to the recommendations and guidelines of Clinical Laboratory Standard Institutes (CLSI M07-A9; 2012). Clinical and Laboratory Standards Institute (CLSI), “Methods for Dilution Antimicrobial Susceptibility Tests for Bacteria That Grow Aerobically; Approved Standard,” Document M07-A9, Clinical and Laboratory Standards Institute (CLSI), Wayne, Pa., USA, 2012.
(§2) Twenty-one grams of Mueller-Hinton Broth (MHB) was suspended in 1 Liter distilled water and then boiled to dissolve the powder completely. The medium was sterilized by autoclaving at 121° C. for 15 min. After autoclaving, the medium was cooled to room temperature before use or stored in the fridge until used.
(§3) Thymoquinone was weighed and dissolved in Dimethyl sulfoxide (DMSO) to produce a thymoquinone stock solution with a concentration of 5,120 μg/ml. Gentamicin sulfate was weighed and dissolved in water to produce a gentamicin sulfate stock solution with a concentration of 5,120 μg/ml, equivalent to gentamicin base.
(§4) Dilutions of thymoquinone and gentamicin sulfate stock solutions were prepared volumetrically in the MHB as follows:
(§5) One mL of original stock solution (5,120 μg/ml) was added to 9 ml sterile MHB to give the working first dilution (512 μg/mL). 12 sterile 7 mL PJ tubes were arranged in a rack in a row. Each tube contained one mL sterile MHB. Ten tubes were labeled as 128 μg/mL, 64 μg/mL, 32 μg/mL, 16 μg/mL, 8 μg/mL, 4 μg/mL, 2 μg/mL, 1 μg/mL, 0.5 μg/mL and 0.25 μg/mL. The eleventh and twelfth tubes were labeled as positive and negative control, respectively.
(§6) The working dilution (512 μg/mL) was serially diluted to give two-fold dilutions. One mL of the working dilution (512 μg/mL) was dispensed in the first tube (labeled as 128 μg/mL) to give a concentration of 256 μg drug/mL MHB. One mL of the first tube was added to the second tube (labeled as 64 μg/mL) to give a concentration of 128 μg drug/mL MHB. One mL of the second tube was transferred to the third tube (labeled as 32 μg/mL) to give a concentration of 64 μg drug/mL MHB. One mL of the third tube was added to the fourth tube (labeled as 16 μg/mL) to give a concentration of 32 μg drug/mL MHB. One mL of the fourth tube was dispensed in the fifth tube (labeled as 8 μg/mL) to give a concentration of 16 μg drug/mL MHB. One mL of the fifth tube was dispensed in the sixth tube (labeled as 4 μg/mL) to give a concentration of 8 μg drug/mL MHB. One mL of the sixth tube was added to the seventh tube (labeled as 2 μg/mL) to give a concentration of 4 μg drug/mL MHB. One mL of the seventh tube was added to the eighth tube (labeled as 1 μg/mL) to give a concentration of 2 μg drug/mL MHB. One mL of the eighth tube was transferred to the ninth tube (labeled as 0.5 μg/mL) to give a concentration of 1 μg drug/mL MHB. One mL of the ninth tube was transferred to the tenth tube (labeled as 0.25 μg/mL) to give a concentration of 0.5 μg drug/mL MHB. The contents were mixed thoroughly by pipetting up and down three times. One mL of the content of the tenth tube was discarded.
(§7) The inoculum suspensions (at 1-2×10^8 CFU/mL) were diluted 1:100 in MHB to obtain 1×10^6 CFU/mL. One mL of the diluted inoculum suspension (1×10^6 CFU/mL) was transferred to each tube except tube 12.
(§8) All inoculated tubes were incubated for 16-20 hours at 37° C. aerobically. […]

[3] = system: Acinetobacter baumannii isolates and Acinetobacter baumannii ATCC BAA 747; test: as above
Experimental: as §1, §2, §3, §4, §5, §6, §7, §8

Compound: CC1(C)S[C@@H]2[C@H](NC(=O)[C@H](N)c3ccc(O)cc3)C(=O)N2[C@H]1C(=O)O [AMX, Amoxicillin]
- susceptibility category ([1]; isolate AB1, AMX disc): R (Resistant ≤13)
- Inhibition zone ([1]; isolate AB1): NZ
- susceptibility category ([1]; isolate AB2, AMX disc): R (Resistant ≤13)
- Inhibition zone ([1]; isolate AB2): NZ
- susceptibility category ([1]; isolate AB3, AMX disc): R (Resistant ≤13)
- Inhibition zone ([1]; isolate AB3): NZ
- susceptibility category ([1]; isolate AB4, AMX disc): R (Resistant ≤13)
- Inhibition zone ([1]; isolate AB4): NZ
- susceptibility category ([1]; isolate AB5, AMX disc): R (Resistant ≤13)
- Inhibition zone ([1]; isolate AB5): NZ
- susceptibility category ([1]; isolate AB6, AMX disc): R (Resistant ≤13)
- Inhibition zone ([1]; isolate AB6): NZ
- susceptibility category ([1]; isolate AB7, AMX disc): R (Resistant ≤13)
- Inhibition zone ([1]; isolate AB7): NZ
- susceptibility category ([1]; isolate AB8, AMX disc): R (Resistant ≤13)
- Inhibition zone ([1]; isolate AB8): NZ
- susceptibility category ([1]; isolate AB9, AMX disc): R (Resistant ≤13)
- Inhibition zone ([1]; isolate AB9): NZ
- susceptibility category ([1]; isolate AB10, AMX disc): R (Resistant ≤13)
- Inhibition zone ([1]; isolate AB10): NZ
- susceptibility category ([1]; isolate AB11, AMX disc): R (Resistant ≤13)
- Inhibition zone ([1]; isolate AB11): NZ
- susceptibility category ([1]; isolate AB12, AMX disc): R (Resistant ≤13)
- Inhibition zone ([1]; isolate AB12): NZ
- susceptibility category ([1]; isolate AB13, AMX disc): R (Resistant ≤13)
- Inhibition zone ([1]; isolate AB13): NZ
- susceptibility category ([1]; isolate AB14, AMX disc): R (Resistant ≤13)
- Inhibition zone ([1]; isolate AB14): NZ
- susceptibility category ([1]; isolate AB15, AMX disc): R (Resistant ≤13)
- Inhibition zone ([1]; isolate AB15): NZ
- susceptibility category ([1]; isolate AB16, AMX disc): R (Resistant ≤13)
- Inhibition zone ([1]; isolate AB16): NZ
- susceptibility category ([1]; isolate AB17, AMX disc): R (Resistant ≤13)
- Inhibition zone ([1]; isolate AB17): NZ
- susceptibility category ([1]; isolate AB18, AMX disc): R (Resistant ≤13)
- Inhibition zone ([1]; isolate AB18): NZ
- susceptibility category ([1]; isolate AB19, AMX disc): R (Resistant ≤13)
- Inhibition zone ([1]; isolate AB19): NZ
- susceptibility category ([1]; isolate AB20, AMX disc): R (Resistant ≤13)
- Inhibition zone ([1]; isolate AB20): NZ
- susceptibility category ([1]; isolate AB21, AMX disc): R (Resistant ≤13)
- Inhibition zone ([1]; isolate AB21): NZ
- susceptibility category ([1]; isolate AB22, AMX disc): R (Resistant ≤13)
- Inhibition zone ([1]; isolate AB22): NZ
- susceptibility category ([1]; isolate AB23, AMX disc): R (Resistant ≤13)
- Inhibition zone ([1]; isolate AB23): NZ
- susceptibility category ([1]; isolate AB24, AMX disc): R (Resistant ≤13)
- Inhibition zone ([1]; isolate AB24): NZ
- susceptibility category ([1]; isolate AB25, AMX disc): R (Resistant ≤13)
- Inhibition zone ([1]; isolate AB25): NZ
- susceptibility category ([1]; isolate AB26, AMX disc): R (Resistant ≤13)
- Inhibition zone ([1]; isolate AB26): NZ
- susceptibility category ([1]; isolate AB27, AMX disc): R (Resistant ≤13)
- Inhibition zone ([1]; isolate AB27): NZ
- susceptibility category ([1]; isolate AB28, AMX disc): R (Resistant ≤13)
- Inhibition zone ([1]; isolate AB28): 9 mm
- susceptibility category ([1]; isolate AB29, AMX disc): R (Resistant ≤13)
- Inhibition zone ([1]; isolate AB29): NZ
- susceptibility category ([1]; isolate AB30, AMX disc): R (Resistant ≤13)
- Inhibition zone ([1]; isolate AB30): NZ
- susceptibility category ([1]; isolate AB31, AMX disc): R (Resistant ≤13)
- Inhibition zone ([1]; isolate AB31): 8 mm
- susceptibility category ([1]; isolate AB32, AMX disc): R (Resistant ≤13)
- Inhibition zone ([1]; isolate AB32): 8 mm
- susceptibility category ([1]; isolate AB33, AMX disc): R (Resistant ≤13)
- Inhibition zone ([1]; isolate AB33): NZ

Compound: CO/N=C(\C(=O)N[C@@H]1C(=O)N2C(C(=O)O)=C(COC(C)=O)CS[C@H]12)c1csc(N)n1 [CTX, Cefotaxime]
- Inhibition zone ([1]; isolate AB1): NZ
- Inhibition zone ([1]; isolate AB2): NZ
- Inhibition zone ([1]; isolate AB3): 15 mm
- Inhibition zone ([1]; isolate AB4): 8 mm
- Inhibition zone ([1]; isolate AB5): NZ
- Inhibition zone ([1]; isolate AB6): 17 mm
- Inhibition zone ([1]; isolate AB7): NZ
- Inhibition zone ([1]; isolate AB8): NZ
- Inhibition zone ([1]; isolate AB9): 11 mm
- Inhibition zone ([1]; isolate AB10): NZ
- Inhibition zone ([1]; isolate AB11): NZ
- Inhibition zone ([1]; isolate AB12): NZ
- Inhibition zone ([1]; isolate AB13): NZ
- Inhibition zone ([1]; isolate AB14): NZ
- Inhibition zone ([1]; isolate AB15): NZ
- Inhibition zone ([1]; isolate AB16): 32 mm
- Inhibition zone ([1]; isolate AB17): NZ
- Inhibition zone ([1]; isolate AB18): NZ
- Inhibition zone ([1]; isolate AB19): NZ
- Inhibition zone ([1]; isolate AB20): NZ
- Inhibition zone ([1]; isolate AB21): NZ
- Inhibition zone ([1]; isolate AB22): NZ
- Inhibition zone ([1]; isolate AB23): NZ
- Inhibition zone ([1]; isolate AB24): NZ
- Inhibition zone ([1]; isolate AB25): 16 mm
- Inhibition zone ([1]; isolate AB26): NZ
- Inhibition zone ([1]; isolate AB27): NZ
- Inhibition zone ([1]; isolate AB28): NZ
- Inhibition zone ([1]; isolate AB29): NZ
- Inhibition zone ([1]; isolate AB30): NZ
- Inhibition zone ([1]; isolate AB31): 8 mm
- Inhibition zone ([1]; isolate AB32): 8 mm
- Inhibition zone ([1]; isolate AB33): 21 mm

Compound: Gentamicin sulfate
- MIC [2]: ≤2 µg/mL
- MIC ([3]; A. baumannii ATCC BAA 747 (standard sensitive strain)): 1 µg/mL
- MIC ([3]; isolate AB7): 32 µg/mL
- MIC ([3]; isolate AB8): 64 µg/mL
- MIC ([3]; isolate AB10): 32 µg/mL
- MIC ([3]; isolate AB11): 32 µg/mL
- MIC ([3]; isolate AB12): 32 µg/mL
- MIC ([3]; isolate AB13): 32 µg/mL

Compound: C[C@@H](O)[C@H]1C(=O)N2C(C(=O)O)=C(SCCN=CN)C[C@H]12 [IP, Imipenem]
- Inhibition zone ([1]; isolate AB1): NZ
- Inhibition zone ([1]; isolate AB2): NZ
- Inhibition zone ([1]; isolate AB3): NZ
- Inhibition zone ([1]; isolate AB4): NZ
- Inhibition zone ([1]; isolate AB5): 8 mm
- Inhibition zone ([1]; isolate AB6): 12 mm
- Inhibition zone ([1]; isolate AB7): NZ
- Inhibition zone ([1]; isolate AB8): 7 mm
- Inhibition zone ([1]; isolate AB9): NZ
- Inhibition zone ([1]; isolate AB10): NZ
- Inhibition zone ([1]; isolate AB11): NZ
- Inhibition zone ([1]; isolate AB12): 11 mm
- Inhibition zone ([1]; isolate AB13): 9 mm
- Inhibition zone ([1]; isolate AB14): 15 mm
- Inhibition zone ([1]; isolate AB15): NZ
- susceptibility category ([1]; isolate AB16, IP disc): S (Sensitive ≥22)
- Inhibition zone ([1]; isolate AB16): 34 mm
- Inhibition zone ([1]; isolate AB17): 15 mm
- Inhibition zone ([1]; isolate AB18): NZ
- Inhibition zone ([1]; isolate AB19): NZ
- Inhibition zone ([1]; isolate AB20): 15 mm
- Inhibition zone ([1]; isolate AB21): NZ
- Inhibition zone ([1]; isolate AB22): 15 mm
- Inhibition zone ([1]; isolate AB23): 20 mm
- Inhibition zone ([1]; isolate AB24): NZ
- susceptibility category ([1]; isolate AB25, IP disc): S (Sensitive ≥22)
- Inhibition zone ([1]; isolate AB25): 23 mm
- susceptibility category ([1]; isolate AB26, IP disc): S (Sensitive ≥22)
- Inhibition zone ([1]; isolate AB26): 22 mm
- Inhibition zone ([1]; isolate AB27): 9 mm
- Inhibition zone ([1]; isolate AB28): 8 mm
- Inhibition zone ([1]; isolate AB29): 9 mm
- Inhibition zone ([1]; isolate AB30): 9 mm
- Inhibition zone ([1]; isolate AB31): 9 mm
- Inhibition zone ([1]; isolate AB32): 18 mm
- Inhibition zone ([1]; isolate AB33): NZ
